These results are taken from patent publication EP4685142A1, “TRIAZINE COMPOUND AND USE THEREOF” (Chengdu Zenitar Biomedical Technology Co., Ltd., priority 2023, dated 2024).

Data set [1] deals with T1, hERG potassium ion channel (Homo sapiens, UniProt Q12809).
Experimental: (§1) Inhibition experiment of compounds on hERG potassium ion channel
(§2) Cell culture and treatment: CHO cells stably expressing hERG were cultured in cell culture flasks and incubated in a 5% CO2 incubator at 37°C. When a cell density reached 60%-80%, the cell culture medium was aspirated, washed once with PBS, and then digested with Detachin. After digestion, the grown cells were neutralized in the cell culture medium, and then centrifuged, the supernatant was aspirated, the cell culture medium was added again to resuspend the grown cells, and the cell density was adjusted to 2-5×10^6 cells/mL for later use.
(§3) Compound preparation: the compound stock solution was diluted in 100% DMSO, that is, 10 µL compound stock solution was serially diluted in 20 µL DMSO by 3 folds to obtain six concentrations. Six concentrations of the compound (4 µL for each concentration) were diluted in 396 µL extracellular fluid by 100 folds to obtain six intermediate concentrations. Six intermediate concentrations of the compound (80 µL for each concentration) were diluted in 320 µL extracellular fluid by 5 folds to obtain final concentrations to be tested. […] DMSO in a final test concentration was not more than 0.2%, and DMSO at this concentration had no effect on the hERG potassium channel. The entire dilution process for compound preparation was performed using Bravo instrument.
(§4) Electrophysiological recording process: the processes of single-celled high-impedance sealing and whole-cell mode formation were all automatically completed by Qpatch instrument, under the whole-cell recording mode, the cells were clamped at -80 mV, before 5-second + 40 mV depolarization stimulus, the cells were given 50-millisecond - 50 mV pre-voltage, followed by repolarization to -50 mV for 5 seconds, and then returning to -80 mV. The voltage stimulus was given every 15 seconds, after 2 minutes of recording, extracellular fluid was recorded for 5 min, and then a drug was administrated, started from a lowest test concentration, each test concentration of the compound was given for 2.5 minutes, after all concentrations were given consecutively, a positive control compound Cisapride (3 µM) was given. At least 3 cells were tested for each concentration (n≥3).
(§5) Data processing: data analysis and processing were performed using GraphPad Prism 5.0 and Excel software. IC50 values of the compounds were calculated by fitting with the following equation using GraphPad Prism 5 software: Y = Bottom + (Top−Bottom)/(1+10^(∧)((LogIC50−X)*HillSlope)); [formula] where X is the Log value of the test sample concentration, Y is an inhibition percentage at a corresponding concentration, and Bottom and Top are the minimum and maximum inhibition percentages, respectively.
Data set [2] has as its target T2, NLRP3 inflammasome (Homo sapiens, UniProt Q96P20).
T2 construct: host or cells: THP-1 cells
Nature of the data set: Inhibitory activity of NLRP3 inflammasome in human monocytes (THP-1 cells, LPS + Nigericin, IL-1β ELISA). Type of data set: cell-based. As for the experimental part: 1. Determination of inhibitory activity of NLRP3 inflammasome in human monocytes
Experimental method: THP-1 cells were cultured in RPMI culture medium containing PMA (10 µM), and then inoculated in 48-well plates at a density of 2×10^5 cells/mL, the plates were incubated overnight in a 5% CO2 incubator at 37°C. The next day, the above culture medium was replaced with Opti-MEM culture medium containing 1 µg/mL LPS. After 3 hours, the grown cells were simulated for 40 min with a drug, and then simulated for 40 min with Nigericin (10 µM), and a cell supernatant was harvested for ELISA analysis.
Table 2 Inhibitory activity of NLRP3 inflammasome

For data set [3], the target named is T1, hERG potassium ion channel. Nature of the data set: Inhibition of hERG potassium ion channel (CHO cells stably expressing hERG, Qpatch).
Experimental: as §1, §2, §3, §4, §5
Data set [4] can be described thus: Pharmacokinetic evaluation in Balb/c mice. Particulars: mouse, in vivo, 5 mg/kg. Format: in vivo. From the text:
4. Pharmacokinetic evaluation of compounds in Balb/c mice
Experimental purpose: to understand pharmacokinetic properties of the compounds.
Experimental basis: Technical Guidelines for Nonclinical Pharmacokinetic Studies of Chemical Drugs, 2014.
Experimental protocol: the pharmacokinetic properties of the compounds were investigated via intravenous administration and intragastric administration in Balb/c mice.
The blood drug concentration was quantitatively analyzed by LC-MS/MS, and pharmacokinetic parameters were calculated, such as peak concentration (Cmax), area under the concentration-time curve (AUC(0-t)), half-life (T1/2), clearance (CL), volume of distribution at steady state (Vdss), and bioavailability (F).
The results of pharmacokinetic evaluation are shown in Table 5 below: Table 5 Pharmacokinetic test results of compounds in Balb/c mice

Data set [5] deals with LPS-induced mice. Description: LPS-induced mouse model, survival. Format: in vivo, Balb/c mice. As to conditions: for 72h Survival rate: 25 mg/kg oral, 1 h before 10 mg/kg LPS i.p.; for survival status of mice (mice alive) 12h / survival status of mice (mice alive) 24h / survival status of mice (mice alive) 36h / survival status of mice (mice alive) 48h / survival status of mice (mice alive) 72h: 25 mg/kg.

The nature of data set [6]: In vivo brain-to-plasma ratio in mice. Particulars: for Plasma / Brain: male mice, oral 10 mg/kg.
Experimental: Evaluation of in vivo brain-to-plasma ratio of compound
Experimental purpose: to obtain the brain-to-plasma ratio of the compound
Experimental protocol: the brain-to-plasma ratio of the compound was investigated by monitoring the content of the compound in mouse brain and plasma.
Experimental procedure: the compound was weighed, followed by adding a small amount of DMSO and adding a sodium chloride solution for injection, to prepare a 10 mg · mL^-1 compound solution for administration. Male mice were orally administered at 10 mg · kg^-1, and whole plasma and whole brain tissue were sampled at 1 h and 6 h after administration (n=3). […] A centrifuge tube was weighed as M1, the centrifuge tube containing the whole brain tissue was weighed as M2, the centrifuge tube containing water for homogenization was weighed as M3, and the centrifuge tube after the removal of 30 µL homogenate was weighed as M4.
Standard curve range: 10-10,000 ng·mL^-1. Content of drug in brain = measured value × 0.03 × (M3−M1)/[(M2−M1)×(M3−M4)].
Setting [7] is: THP-1 cells, PMA, LPS 1 µg/mL 3 h, drug 40 min, Nigericin 10 µM 40 min, IL-1β ELISA, read-out: IC50.
Where [8] appears, read: PO, Balb/c mice, read-out: AUC(0-t).
The mark [9] stands for this setting: PO, Balb/c mice, read-out: Cmax.
Where [10] appears, read: PO, Balb/c mice, read-out: T1/2 (converted).
The mark [11] stands for this setting: male, mouse, brain/plasma, po, 10 mg/kg.
Where [12] appears, read: male, mouse, plasma, po, 10 mg/kg.

Read-outs that look alike come from different tables or passages of the source.

T1 sequence (Q12809 whole entry): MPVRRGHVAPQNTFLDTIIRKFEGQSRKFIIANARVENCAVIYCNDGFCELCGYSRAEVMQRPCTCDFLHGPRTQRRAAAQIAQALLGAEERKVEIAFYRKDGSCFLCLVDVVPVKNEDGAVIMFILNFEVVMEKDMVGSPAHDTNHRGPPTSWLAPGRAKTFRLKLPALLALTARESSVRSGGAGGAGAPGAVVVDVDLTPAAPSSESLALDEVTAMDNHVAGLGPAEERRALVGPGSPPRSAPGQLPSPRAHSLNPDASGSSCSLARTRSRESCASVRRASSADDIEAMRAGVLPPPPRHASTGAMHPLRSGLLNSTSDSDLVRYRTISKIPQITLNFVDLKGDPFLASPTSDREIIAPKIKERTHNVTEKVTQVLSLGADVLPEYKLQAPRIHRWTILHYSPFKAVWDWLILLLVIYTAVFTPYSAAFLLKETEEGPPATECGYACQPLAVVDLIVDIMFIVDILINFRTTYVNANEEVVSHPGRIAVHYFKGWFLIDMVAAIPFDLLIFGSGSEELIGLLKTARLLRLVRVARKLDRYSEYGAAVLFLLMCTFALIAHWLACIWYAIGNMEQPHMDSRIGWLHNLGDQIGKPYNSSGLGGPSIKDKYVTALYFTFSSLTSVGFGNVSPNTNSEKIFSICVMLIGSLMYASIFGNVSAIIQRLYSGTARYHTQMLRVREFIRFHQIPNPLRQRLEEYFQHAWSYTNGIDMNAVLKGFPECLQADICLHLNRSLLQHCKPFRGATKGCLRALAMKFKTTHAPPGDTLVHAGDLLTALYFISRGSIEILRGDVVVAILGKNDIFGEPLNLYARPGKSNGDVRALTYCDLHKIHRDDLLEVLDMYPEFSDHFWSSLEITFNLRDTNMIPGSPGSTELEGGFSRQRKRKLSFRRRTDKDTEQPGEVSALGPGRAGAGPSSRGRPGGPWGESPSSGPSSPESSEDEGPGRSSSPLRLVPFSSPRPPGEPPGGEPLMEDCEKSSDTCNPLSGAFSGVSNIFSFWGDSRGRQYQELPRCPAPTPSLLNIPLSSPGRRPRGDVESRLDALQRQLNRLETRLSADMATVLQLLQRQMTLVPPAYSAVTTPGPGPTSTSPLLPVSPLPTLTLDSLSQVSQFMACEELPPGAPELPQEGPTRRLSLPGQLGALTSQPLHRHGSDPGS
T2 sequence (Q96P20 whole entry): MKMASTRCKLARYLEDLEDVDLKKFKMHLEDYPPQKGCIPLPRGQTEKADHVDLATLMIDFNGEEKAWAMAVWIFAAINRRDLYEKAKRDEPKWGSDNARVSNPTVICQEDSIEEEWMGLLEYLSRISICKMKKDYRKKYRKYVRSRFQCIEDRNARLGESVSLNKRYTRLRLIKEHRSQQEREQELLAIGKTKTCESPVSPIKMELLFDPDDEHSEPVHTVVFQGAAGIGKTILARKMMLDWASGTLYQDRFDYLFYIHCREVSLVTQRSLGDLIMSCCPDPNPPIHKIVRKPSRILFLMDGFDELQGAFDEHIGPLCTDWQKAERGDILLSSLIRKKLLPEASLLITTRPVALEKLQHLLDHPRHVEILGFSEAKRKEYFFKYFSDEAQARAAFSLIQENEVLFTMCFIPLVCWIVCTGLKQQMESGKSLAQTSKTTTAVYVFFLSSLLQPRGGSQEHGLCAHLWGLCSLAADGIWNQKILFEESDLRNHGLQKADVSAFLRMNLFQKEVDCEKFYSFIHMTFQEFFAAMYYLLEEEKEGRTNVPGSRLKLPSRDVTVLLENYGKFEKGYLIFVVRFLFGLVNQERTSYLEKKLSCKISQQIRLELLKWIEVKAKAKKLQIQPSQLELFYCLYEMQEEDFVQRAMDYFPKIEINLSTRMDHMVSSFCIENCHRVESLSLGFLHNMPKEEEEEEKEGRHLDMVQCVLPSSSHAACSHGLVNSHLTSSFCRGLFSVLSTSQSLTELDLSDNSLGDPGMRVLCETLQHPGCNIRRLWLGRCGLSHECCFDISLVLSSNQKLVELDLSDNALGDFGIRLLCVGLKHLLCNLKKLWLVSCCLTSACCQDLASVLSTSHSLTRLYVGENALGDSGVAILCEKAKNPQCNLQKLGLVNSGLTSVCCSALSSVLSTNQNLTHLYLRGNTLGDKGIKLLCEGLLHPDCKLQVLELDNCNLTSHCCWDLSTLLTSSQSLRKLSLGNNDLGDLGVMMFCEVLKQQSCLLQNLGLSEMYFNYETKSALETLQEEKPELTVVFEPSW

On to `Cn1c(-c2ccc3sccc3c2O)nnc(N[C@@H]2CCCN(C3CC(F)(F)C3)C2)c1=O` [Compound 5, (R)-6-((1-(3,3-difluorocyclobutyl)piperidin-3-yl)amino)-3-(4-hydroxybenzo[b]thiophen-5-yl)-4-methyl-1,2,4-triazin-5(4H)-ketone], for which, in data set [1] (human), the “inhibitory effects on the hERG potassium ion channel (conclusion in words)” value (from here on “inhibitory effects”) is “Conclusion: compounds 3, 4, 5, 9, 16, 17, 24, 30, 40, 41, 42, 43, 54 and others have weak inhibitory effects on the hERG potassium ion channel, having weaker inhibitory effect than the reference compound Ref-1”. In addition, in data set [2] (setting [7]), the IC50 was found to be 3.56 nM. For the same molecule, the “20 uM Inhibition ratio” value in data set [3] turned out to be 19.97%.

Regarding `Cn1c(-c2ccc3sccc3c2O)nnc(N[C@@H]2CCCN(CC3CC3)C2)c1=O` [Compound 8, (R)-6-((1-(cyclopropylmethyl)piperidin-3-yl)amino)-3-(4-hydroxybenzo[b]thiophen-5-yl)-4-methyl-1,2,4-triazin-5(4H)-ketone], in data set [2] (setting [7]), the half-maximal inhibitory concentration (IC50) amounted to 1.92 nM. Besides, the “20 uM Inhibition ratio” value in data set [3] was 69.48%.

As for `Cn1c(-c2ccc3sccc3c2O)nnc(N[C@@H]2CCCN(CCO)C2)c1=O` [Compound 9, (R)-3-(4-hydroxybenzo[b]thiophen-5-yl)-6-((1-(2-hydroxyethyl)piperidin-3-yl)amino)-4-methyl-1,2,4-triazin-5(4H)-ketone], in data set [4] (setting [8]), the AUC(0-t) was 4400 ng·h/mL. Further, the Cmax in data set [4] (setting [9]) turned out to be 2280 ng/mL. The half-life in data set [4] (setting [10]) was 0.85 h. Further, in data set [5], the “72h Survival rate” value came to 70%. In data set [5] (First cage (5 mice)), the “survival status of mice (mice alive) 12h” value was found to be 5, the “survival status of mice (mice alive) 24h” value is given as 5, the “survival status of mice (mice alive) 36h” value came out at 5 and the “survival status of mice (mice alive) 48h” value amounted to 5. Moreover, in data set [5] (First cage (5 mice)), the “survival status of mice (mice alive) 72h” value was 3. Moreover, in data set [5] (Second cage (5 mice)), the “survival status of mice (mice alive) 12h” value stood at 5, the “survival status of mice (mice alive) 24h” value was found to be 5, the “survival status of mice (mice alive) 36h” value was 5 and the “survival status of mice (mice alive) 48h” value stood at 5. For the same molecule, in data set [5] (Second cage (5 mice)), the “survival status of mice (mice alive) 72h” value is listed as 4. In data set [1], the “inhibitory effects” value was “Conclusion: compounds 3, 4, 5, 9, 16, 17, 24, 30, 40, 41, 42, 43, 54 and others have weak inhibitory effects on the hERG potassium ion channel, having weaker inhibitory effect than the reference compound Ref-1”. Also, the IC50 in data set [2] worked out at 3.95 nM. For the same molecule, the Plasma in data set [6] (1 h) is 1830 ng/mL. Also, the Plasma in data set [6] (6 h) was determined as 46 ng/mL. In addition, in data set [6] (mouse, brain, po, 10 mg/kg), the Kp at 1 h was determined as 0.04 and the Kp at 6 h worked out at 0.46. Moreover, the “20 uM Inhibition ratio” value in data set [3] is 8.83%.

In data set [4] (male, Balb/c, po), `CCN1CCC[C@@H](Nc2nnc(-c3ccc4sccc4c3O)n(CC)c2=O)C1` [Compound 12, (R)-4-ethyl-6-((1-ethylpiperidin-3-yl)amino)-3-(4-hydroxybenzo[b]thiophen-5-yl)-1,2,4-triazi n-5(4H)-ketone] showed an area under the curve AUC(0-t) of 12800 ng·h/mL, a Cmax of 2740 ng/mL and a half-life of 3.08 h. In data set [2] (setting [7]), the IC50 was 7.2 nM. Also, the Brain in data set [6] (1 h) was determined as 498 ng/g. Besides, in data set [6] (6 h), the Brain is 215 ng/g. In data set [6] (setting [11]), the Kp at 1 h was 0.13 and the partition ratio (Kp) at 6 h came out at 0.13. Besides, in data set [6] (setting [12]), the concentration at 1 h was 3840 ng/mL and the concentration at 6 h came to 1700 ng/mL. Moreover, the “20 uM Inhibition ratio” value in data set [3] came out at 52.99%.

As for `Cn1c(-c2ccc3sccc3c2O)nnc(N[C@@H]2CCCN(C3CC3)C2)c1=O` [Compound 16, (R)-6-((1-cyclopropylpiperidin-3-yl)amino)-3-(4-hydroxybenzo[b]thiophen-5-yl)-4-methyl-1,2,4-triazin-5(4H)-ketone], in data set [1] (human), the “inhibitory effects” value is “Conclusion: compounds 3, 4, 5, 9, 16, 17, 24, 30, 40, 41, 42, 43, 54 and others have weak inhibitory effects on the hERG potassium ion channel, having weaker inhibitory effect than the reference compound Ref-1”. Moreover, the IC50 in data set [2] (setting [7]) is 1.62 nM. Also, in data set [3], the “20 uM Inhibition ratio” value stood at 35.63%.

Take `C#Cc1ccc(-c2nnc(N[C@@H]3CCCN(C)C3)c(=O)n2C)c(O)c1` [Compound 24, (R)-3-(4-ethynyl-2-hydroxyphenyl)-4-methyl-6-((1-methylpiperidin-3-yl)amino)-1,2,4-triazin-5(4H)-ketone]: the “inhibitory effects” value in data set [1] (human) is “Conclusion: compounds 3, 4, 5, 9, 16, 17, 24, 30, 40, 41, 42, 43, 54 and others have weak inhibitory effects on the hERG potassium ion channel, having weaker inhibitory effect than the reference compound Ref-1”. For the same molecule, the IC50 in data set [2] (setting [7]) worked out at 12 nM. In data set [3], the “20 uM Inhibition ratio” value was found to be 6.83%.

On to `Cn1c(-c2ccc3sccc3c2O)nnc(N[C@@H]2CCCC[C@H]2O)c1=O` [Compound 30, 3-(4-hydroxybenzo[b]thiophen-5-yl)-6-(((1R,2R)-2-hydroxycyclohexyl)amino)-4-methyl-1,2,4-triazin-5(4H)-ketone.], for which, in data set [4] (male, Balb/c, po), the AUC(0-t) turned out to be 4380 ng·h/mL, the highest level (Cmax) was 9810 ng/mL and the half-life is 0.19 h. For the same molecule, the “inhibitory effects” value in data set [1] (human) was “Conclusion: compounds 3, 4, 5, 9, 16, 17, 24, 30, 40, 41, 42, 43, 54 and others have weak inhibitory effects on the hERG potassium ion channel, having weaker inhibitory effect than the reference compound Ref-1”. Also, the IC50 in data set [2] (setting [7]) was 1.97 nM. For the same molecule, the “20 uM Inhibition ratio” value in data set [3] was 1.70%.

`CC(C)n1c(-c2ccc3sccc3c2O)nnc(N[C@@H]2CCCN(C)C2)c1=O` [Compound 54, (R)-3-(4-hydroxybenzo[b]thiophen-5-yl)-4-isopropyl-6-((1-methylpiperidin-3-yl)amino)-1,2,4-triazin-5(4H)-ketone]: the AUC(0-t) in data set [4] (setting [8]) worked out at 7470 ng·h/mL. The Cmax in data set [4] (setting [9]) came to 1550 ng/mL. For the same molecule, the half-life in data set [4] (setting [10]) was 4.25 h. Further, in data set [1], the “20 uM Inhibition ratio” value turned out to be 7.77%; the “inhibitory effects” value was “Conclusion: compounds 3, 4, 5, 9, 16, 17, 24, 30, 40, 41, 42, 43, 54 and others have weak inhibitory effects on the hERG potassium ion channel, having weaker inhibitory effect than the reference compound Ref-1”.

Take `[2H]C([2H])([2H])n1c(-c2ccc3sccc3c2O)nnc(N[C@@H]2CCCN(CC)C2)c1=O` [Compound 55, (R)-6-((1-ethylpiperidin-3-yl)amino)-3-(4-hydroxybenzo[b]thiophen-5-yl)-4-(methyl-d3)-1,2,4-triazin-5(4H)-ketone]: the AUC(0-t) in data set [4] (setting [8]) worked out at 7450 ng·h/mL. For the same molecule, the Cmax in data set [4] (setting [9]) is 1710 ng/mL. In addition, in data set [4] (setting [10]), the half-life is 2.91 h. Also, the IC50 in data set [2] was determined as 3.5 nM.

For `Cc1nc(N[C@@H]2CCCC[C@H]2O)nnc1-c1ccc(C(F)(F)F)cc1O` [Ref-2, reference compound], the AUC(0-t) in data set [4] (setting [8]) was determined as 270 ng·h/mL. For the same molecule, the Cmax in data set [4] (setting [9]) was determined as 246 ng/mL. Moreover, in data set [4] (setting [10]), the half-life is 2.6 h. Moreover, the “72h Survival rate” value in data set [5] was determined as 50%. Also, in data set [5] (First cage (5 mice)), the “survival status of mice (mice alive) 12h” value was determined as 5, the “survival status of mice (mice alive) 24h” value is 5, the “survival status of mice (mice alive) 36h” value is reported as 4 and the “survival status of mice (mice alive) 48h” value was determined as 2. The “survival status of mice (mice alive) 72h” value in data set [5] (First cage (5 mice)) came out at 2. In addition, in data set [5] (Second cage (5 mice)), the “survival status of mice (mice alive) 12h” value was found to be 5, the “survival status of mice (mice alive) 24h” value came to 4, the “survival status of mice (mice alive) 36h” value is 4 and the “survival status of mice (mice alive) 48h” value worked out at 3. Besides, in data set [5] (Second cage (5 mice)), the “survival status of mice (mice alive) 72h” value amounted to 3. Also, the IC50 in data set [2] was 14.7 nM. Also, in data set [6] (1 h), the Brain was found to be 168 ng/g and the Plasma amounted to 264 ng/mL. Moreover, the Plasma in data set [6] (6 h) worked out at 8.27 ng/mL. In data set [6] (mouse, brain, po, 10 mg/kg), the Kp at 1 h was found to be 0.63 and the Kp at 6 h stood at 0.17.

For the molecule `CN1CCC[C@@H](Nc2nnc(-c3ccc(C(F)(F)F)cc3O)n(C)c2=O)C1` [Ref-3, reference compound], the area under the curve AUC(0-t) in data set [4] (setting [8]) amounted to 1820 ng·h/mL. Also, the Cmax in data set [4] (setting [9]) was 1140 ng/mL. The half-life in data set [4] (setting [10]) is 0.87 h. The IC50 in data set [2] (setting [7]) was determined as 6.49 nM.
